Literature values in US10960082B2, “Tridentate connexon and use thereof” (NEWBIO THERAPEUTICS, INC., priority 2013, dated 2021).
pIC50: −log10 of the molar value.

Test system: human carcinoma lines

## COc1cccc2c1C(=O)c1c(O)c3c(c(O)c1C2=O)C[C@@](O)(C(=O)CO)C[C@@H]3O[C@H]1C[C@H](N)[C@H](O)[C@H](C)O1 [doxorubicin]
  pIC50: 6.70 to 7.00
